The text below walks through data of PMC2772130 (Chemical research in toxicology, 2008).

Structures are written as SMILES.

Data set [1] deals with T1, P450 1B1 (Homo sapiens, UniProt Q16678).
T1 sequence (Q16678 1-543): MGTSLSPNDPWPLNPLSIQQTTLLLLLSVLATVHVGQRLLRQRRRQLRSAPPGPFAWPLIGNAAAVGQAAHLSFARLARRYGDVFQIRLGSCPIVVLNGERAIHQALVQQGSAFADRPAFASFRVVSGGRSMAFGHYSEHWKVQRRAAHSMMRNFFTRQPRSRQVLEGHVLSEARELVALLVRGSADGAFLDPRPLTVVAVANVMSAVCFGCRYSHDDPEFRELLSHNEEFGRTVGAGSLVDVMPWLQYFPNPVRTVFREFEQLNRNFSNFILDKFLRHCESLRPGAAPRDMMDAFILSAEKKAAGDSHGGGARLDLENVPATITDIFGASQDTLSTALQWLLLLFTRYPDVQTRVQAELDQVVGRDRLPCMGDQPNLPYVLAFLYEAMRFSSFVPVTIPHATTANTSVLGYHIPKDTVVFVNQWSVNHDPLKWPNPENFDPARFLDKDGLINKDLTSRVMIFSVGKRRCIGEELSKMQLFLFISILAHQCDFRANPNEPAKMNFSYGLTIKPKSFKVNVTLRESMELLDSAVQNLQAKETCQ
The data set is described as follows: Quenching of P450 1B1. It counts as binding. To be noted: extrapolated % quenching; 1.0 μM P450 1B1.

Data set [2] has as its target T1, P450 1B1.
For data set [3], the target named is T1, P450 1B1. To be noted: cited from earlier work.
The target in data set [4] is T2, P450 1A1 (Homo sapiens, UniProt P04798).
T2 sequence (P04798 1-512): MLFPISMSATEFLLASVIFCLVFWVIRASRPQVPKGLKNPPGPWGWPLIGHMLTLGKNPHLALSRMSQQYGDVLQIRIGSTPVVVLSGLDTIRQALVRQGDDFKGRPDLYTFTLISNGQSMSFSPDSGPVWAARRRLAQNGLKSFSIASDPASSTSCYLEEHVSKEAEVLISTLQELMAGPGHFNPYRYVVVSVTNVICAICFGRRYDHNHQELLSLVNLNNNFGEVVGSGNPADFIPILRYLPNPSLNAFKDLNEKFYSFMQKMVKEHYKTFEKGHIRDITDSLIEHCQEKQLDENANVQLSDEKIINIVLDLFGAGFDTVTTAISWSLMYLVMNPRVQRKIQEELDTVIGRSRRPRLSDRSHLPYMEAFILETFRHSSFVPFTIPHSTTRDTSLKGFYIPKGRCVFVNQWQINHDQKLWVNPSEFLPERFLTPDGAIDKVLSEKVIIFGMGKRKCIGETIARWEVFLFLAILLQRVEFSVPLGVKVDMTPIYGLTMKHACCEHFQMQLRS
To be noted: cited from earlier work.

The target of data set [5] is T1, P450 1B1. The data set is described as follows: Spectral binding titrations with purified P450 1B1. To be noted: for wavelengths (peak/trough) / ΔAmax (ΔA~416-A~383): 1 μM P450 1B1; for wavelengths (peak/trough): pH 7.4; for ΔAmax (ΔA~416-A~383): means ± S.E.
The target of data set [6] is T2, P450 1A1. Kind of data set: Quenching of inhibitor-derived fluorescence with P450 1A1. To be noted: enzyme and inhibitor 10 nM; 25 °C.
The target of data set [7] is T3, P450 1A2 (Homo sapiens, UniProt P05177).
T3 sequence (P05177 1-516): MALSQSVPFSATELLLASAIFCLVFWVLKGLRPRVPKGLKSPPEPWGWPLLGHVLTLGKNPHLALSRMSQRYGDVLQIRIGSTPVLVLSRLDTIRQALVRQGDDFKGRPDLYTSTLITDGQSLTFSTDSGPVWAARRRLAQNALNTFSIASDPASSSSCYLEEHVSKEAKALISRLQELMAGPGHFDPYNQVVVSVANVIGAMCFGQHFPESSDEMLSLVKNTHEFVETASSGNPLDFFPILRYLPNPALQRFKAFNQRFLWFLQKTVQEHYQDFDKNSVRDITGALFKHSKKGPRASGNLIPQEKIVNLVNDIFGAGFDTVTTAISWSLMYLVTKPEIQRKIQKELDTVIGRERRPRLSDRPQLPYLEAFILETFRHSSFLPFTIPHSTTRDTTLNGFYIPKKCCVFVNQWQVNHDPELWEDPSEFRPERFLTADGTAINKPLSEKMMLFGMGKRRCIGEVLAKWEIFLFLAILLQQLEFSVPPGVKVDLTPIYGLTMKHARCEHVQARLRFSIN
Kind of data set: Quenching of inhibitor-derived fluorescence with P450 1A2. To be noted: enzyme and inhibitor 10 nM; 25 °C.

The target of data set [8] is T1, P450 1B1. The data set is described as follows: Quenching of PAH. To be noted: for half-maximal time (t1/2) to decrease B[a]P emission: 10 nM P450 1B1, 25 °C; for interaction with P450 1B1 (quenching of inhibitor fluorescence): inhibitors at 10 nM.
The target in data set [9] is T1, P450 1B1. The data set is described as follows: Inhibition of P450 1B1-dependent 7-ethoxyresorufin O-deethylation. To be noted: for IC50: inhibition of EROD activity IC50, 15 s of incubation time (direct and direct/restore inhibitors), means and SE; for EROD kcat of P450 1B1 relative to controls / fold increase in EROD Km of P450 1B1: 1PP 66 nM; for EROD kcat of P450 1B1 relative to controls: after 6 min of incubation; for fold increase in EROD Km of P450 1B1: at 15 s; for EROD kcat of P450 1B1 relative to control, first decrease: initial stage of incubation.

Data set [10] addresses T2, P450 1A1. Kind of data set: Inhibition of P450 1A1-dependent EROD activity. The data set is classed as biochemical. To be noted: for fold increase in EROD Km of P450 1A1: 1PP 66 nM, 3PPh 333 nM; for mechanism of inhibition of P450 1A1 EROD activity: 37 °C, 30 min.
Data set [11] deals with T3, P450 1A2. Kind of data set: Inhibition of P450 1A2-dependent EROD activity. It counts as biochemical. To be noted: 37 °C.
Data set [12] has as its target T2, P450 1A1. Kind of data set: Quenching of P450 fluorescence with inhibitors, P450 1A1. The data set is classed as binding.
The target in data set [13] is T3, P450 1A2. The data set is described as follows: Quenching of P450 fluorescence with inhibitors, P450 1A2. The data set is classed as binding.
Data set [14] concerns the target T3, P450 1A2. To be noted: cited from earlier work.

On to `C#Cc1ccc2ccc3cccc4ccc1c2c34` [1EP, 1-ethynylpyrene], for which the “PAH binding to P450 1B1 Bmax” value on P450 1B1 [1] was 74 ± 1%. The “ΔAmax / Ks” value on P450 1B1 [2] came out at 0.017. On P450 1B1 [3], the “mechanism of inhibition of P450 1B1” value is recorded as “direct inhibitors”. The “mechanism of inhibition of P450 1A1” value at P450 1A1 [4] is recorded as “mechanism-based manner”. The Kd at P450 1B1 [5] was 2900 ± 1000 nM; at P450 1B1 [8], 1.9 to 18 nM. Moreover, at P450 1B1 [5], the “wavelengths (peak/trough)” value is 416/383. On P450 1A1 [6], the “fluorescence quenching with P450 1A1” value is given as “to a lesser extent with P450 1A1 than 1B1”. In addition, on P450 1A2 [7], the “interaction with P450 1A2 (fluorescence quenching)” value is given as “No interactions”. The IC50 at P450 1B1 [9] is 31 ± 4 nM.
In the case of `CC#Cc1ccc2ccc3cccc4ccc1c2c34` [1PP, 1-(1-propynyl)pyrene], the “fold increase in EROD Km of P450 1A1” value on P450 1A1 [10] (at 360 s) is reported as 10 fold; at P450 1A1 [10] (initial incubation time) it was ~ 8 fold. Besides, the “mechanism of inhibition of P450 1A1 EROD activity” value on P450 1A1 [10] was “mechanism-based inhibitors”. Besides, the “mechanism of inhibition of P450 1A2 EROD activity” value at P450 1A2 [11] is on record as “mechanism-based manner”. The “PAH binding to P450 1B1 Bmax” value on P450 1B1 [1] is recorded as 69 ± 1%. Besides, the Kd on P450 1A1 [12] was around 10000 nM; on P450 1A2 [13], around 10000 nM; at P450 1B1 [5], 2700 ± 400 nM; at P450 1B1 [8], 1.9 to 18 nM. In addition, the “ΔAmax / Ks” value at P450 1B1 [2] was 0.016. Besides, at P450 1B1 [3], the “mechanism of inhibition of P450 1B1” value is “direct inhibitors”. The “mechanism of inhibition of P450 1A1” value at P450 1A1 [4] was “mechanism-based manner”. Moreover, on P450 1B1 [5], the “wavelengths (peak/trough)” value was 416/383. Also, the “EROD kcat of P450 1B1 relative to controls” value on P450 1B1 [9] (3PPh 33 nM) is on record as 44%. Moreover, the “fold increase in EROD Km of P450 1B1” value on P450 1B1 [9] (3PPh 33 nM) is 6.8 fold. In addition, 22 ± 3 nM corresponded to half-maximal inhibition against P450 1B1 [9] (IC50). For the same compound, the “EROD kcat of P450 1B1 relative to control, first decrease” value at P450 1B1 [9] is “~ one-fifth”.
In the case of `C=Cc1ccc2ccc3cccc4ccc1c2c34` [1VP, 1-vinylpyrene], the “PAH binding to P450 1B1 Bmax” value on P450 1B1 [1] is 65 ± 2%. Also, the dissociation constant Kd on P450 1A1 [12] was around 10000 nM; on P450 1A2 [13] it was around 10000 nM; at P450 1B1 [5], 4300 ± 500 nM; on P450 1B1 [8] it was 1.9 to 18 nM. The “ΔAmax / Ks” value at P450 1B1 [2] is 0.021. For the same compound, the “ΔAmax (ΔA~416-A~383)” value at P450 1B1 [5] was determined as 0.092 ± 0.006. For the same compound, the “wavelengths (peak/trough)” value at P450 1B1 [5] is recorded as 416/383. The same compound came in with an IC50 at P450 1B1 [9] of 88 ± 10 nM.
On to `CC#Cc1ccc2ccc3ccccc3c2c1` [3PPh, 3-(1-propynyl)phenanthrene], for which, at P450 1A1 [10] (at 360 s), the “fold increase in EROD Km of P450 1A1” value worked out at 25 fold. Besides, on P450 1A1 [10] (initial incubation time), the “fold increase in EROD Km of P450 1A1” value is reported as ~ 8 fold. Moreover, on P450 1A1 [10], the “mechanism of inhibition of P450 1A1 EROD activity” value was “mechanism-based inhibitors”. Besides, on P450 1A2 [11], the “mechanism of inhibition of P450 1A2 EROD activity” value is “mechanism-based manner”. The “PAH binding to P450 1B1 Bmax” value at P450 1B1 [1] was 73 ± 5%. Moreover, at P450 1B1 [2], the “ΔAmax / Ks” value came out at 0.019. In addition, at P450 1B1 [5], the Kd amounted to 3100 ± 400 nM, the “ΔAmax (ΔA~416-A~383)” value was 0.060 ± 0.004 and the “wavelengths (peak/trough)” value is 415/383. For the same compound, at P450 1B1 [9] (3PPh 33 nM), the “EROD kcat of P450 1B1 relative to controls” value amounted to 56% and the “fold increase in EROD Km of P450 1B1” value amounted to 2.3 fold. For the same compound, the “EROD Km of P450 1B1 relative to control value” on P450 1B1 [9] (3PPh 33 nM, 6 min of incubation) is reported as “one-third”. Moreover, at P450 1B1 [9], half-maximal inhibition (IC50) required 40 ± 3 nM and the “EROD kcat of P450 1B1 relative to control, first decrease” value is “~ one-fifth”.
As for `c1ccc2c(c1)cc1ccc3cccc4ccc2c1c34` [B[a]P, benzo[a]pyrene], the “mechanism of inhibition of P450 1A2 EROD activity” value at P450 1A2 [11] was “directly inhibited by low concentration of B[a]P, but the inhibition was increased with time at higher B[a]P concentrations”. In addition, the Kd was around 10000 nM on P450 1A1 [12], around 10000 nM at P450 1A2 [13] and 11 nM at P450 1B1 [8]. In addition, the “mechanism of inhibition of P450 1A2” value at P450 1A2 [14] is “mechanism-based manner”. The “half-maximal time (t1/2) to decrease B[a]P emission” value at P450 1B1 [8] (2.5 nM B[a]P) is listed as 33 s; on P450 1B1 [8] (5 nM B[a]P) it was 15 s; on P450 1B1 [8] (10 nM B[a]P), 7.5 s. The same compound registered an IC50 at P450 1B1 [9] of 31 ± 4 nM.
On to `c1ccc2c(c1)-c1cccc3c1c-2cc1ccccc13` [B[b]FA, benzo[b]fluoranthene], for which the “PAH binding to P450 1B1 Bmax” value on P450 1B1 [1] is 91 ± 2%. For the same compound, the Kd at P450 1A1 [12] and on P450 1A2 [13] was around 10000 nM each time. Besides, the “interaction with P450 1B1 (quenching of inhibitor fluorescence)” value on P450 1B1 [8] is “not found”. At P450 1B1 [9], this compound showed an IC50 of 5 ± 1 nM.
Consider `c1ccc2c(c1)-c1cccc3cccc-2c13` [FA, fluoranthene], for which, on P450 1B1 [1], the “PAH binding to P450 1B1 Bmax” value is given as 91 ± 2%. The Kd at P450 1A1 [12] and on P450 1A2 [13] was around 10000 nM in each case. In addition, the “interaction with P450 1B1 (quenching of inhibitor fluorescence)” value on P450 1B1 [8] was “not found”. This compound had an IC50 on P450 1B1 [9] of 15 ± 1 nM.

The term Kd denotes the equilibrium constant for the complex coming apart. A high value points to a looser complex. Broadly, the IC50 is the point on the concentration scale where inhibition reaches its midpoint. Read a low IC50 as greater potency.
